The values that follow come from US20120022057A1, “BICYCLIC COMPOUNDS AS INHIBITORS OF DIACYGLYCEROL ACYLTRANSFERASE” (Schering Corporation, priority 2009, published 2012).

The assay addresses T1, human DGAT1 (Homo sapiens, UniProt O75907).
T1 construct: made in house; host or cells: Sf9 insect cells (microsomes)
T1 sequence (O75907 1-488): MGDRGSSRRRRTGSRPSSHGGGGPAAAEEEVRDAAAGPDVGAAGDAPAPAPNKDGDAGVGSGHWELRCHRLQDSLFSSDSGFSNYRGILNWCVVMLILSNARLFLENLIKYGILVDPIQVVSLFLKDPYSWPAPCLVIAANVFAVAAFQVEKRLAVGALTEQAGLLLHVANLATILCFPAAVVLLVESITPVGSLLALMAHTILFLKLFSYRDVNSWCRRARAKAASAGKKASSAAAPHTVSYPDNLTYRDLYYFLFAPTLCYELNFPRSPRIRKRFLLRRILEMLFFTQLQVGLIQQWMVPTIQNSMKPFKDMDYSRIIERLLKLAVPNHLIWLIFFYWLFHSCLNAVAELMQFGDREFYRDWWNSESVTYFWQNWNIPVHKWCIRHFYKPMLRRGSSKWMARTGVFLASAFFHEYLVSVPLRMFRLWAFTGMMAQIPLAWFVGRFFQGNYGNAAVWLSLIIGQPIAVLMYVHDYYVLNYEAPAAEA
Kind of assay: in vitro DGAT1 inhibition assay (microsomes, [14C]-palmitoyl-CoA, wheat germ agglutinin beads). It is filed as biochemical. The conditions noted are these: human DGAT1 enzyme expressed in Sf9 insect cells, 2 hours at room temperature. As for the experimental part: The assay used to determine the DGAT inhibitory activity of the inventive compounds is described below:
The in vitro assay to identify DGAT1 inhibitors uses human DGAT1 enzyme expressed in Sf9 insect cells prepared as microsomes. The reaction was initiated by the addition of the combined substrates 1,2-dioleoyl-sn-glycerol and [^14C]-palmitoyl-CoA and incubated with test compounds and microsomal membranes for 2 hours at room temperature. The assay was stopped by adding 0.5 mg wheat germ agglutinin beads in assay buffer with 1% Brij-35 and 1% 3-cholamidopropyldimethyl-ammonio-1-propane sulfonate. Plates were sealed with TopSeal and incubated for 18 hours to allow the radioactive triglyceride product to come into proximity with the bead. Plates were read on a TopCount instrument.
Percent inhibition was calculated as the percent of (test compound inhibition minus non-specific binding) relative to (total binding minus non-specific binding). IC50 values were determined by curve fitting the data to a Sigmoidal dose-response in GraphPad Prism utilizing the following equation:
Y=A+(B−A)/(1+10̂((LogIC50−X))),
where A and B are the bottom and top of the curve (highest and lowest inhibition), respectively, and X is the logarithm of concentration.
For `CC1CN(C(=O)Nc2ccc(F)cc2C(F)(F)F)c2ccc(-c3ccc([C@H]4CC[C@H](CC(=O)O)CC4)cc3)cc2O1` (single isomer, unassigned) [C-78 enantiomer A, 2-((1r,4r)-4-(4-(4-(4-fluoro-2-(trifluoromethyl)phenylcarbamoyl)-2-methyl-3,4-dihydro-2H-benzo[b][1,4]oxazin-7-yl)phenyl)cyclohexyl)acetic acid], the IC50 (in general, the concentration needed to halve the response being measured) is 79 nM.
Compound `C[C@@H]1CN(C(=O)Nc2ccccc2)c2ccc(-c3ccc([C@H]4CC[C@H](CC(=O)O)CC4)cc3)cc2O1` [B-18 enantiomer A, 2-((1r,4r)-4-(4-(2-methyl-4-(phenylcarbamoyl)-3,4-dihydro-2H-benzo[b][1,4]oxazin-7-yl)phenyl)cyclohexyl)acetic acid] registered an IC50 of 43 nM.
Take `CCc1ccccc1NC(=O)N1C[C@@H](C)Oc2cc(-c3ccc([C@H]4CC[C@H](CC(=O)O)CC4)cc3)ccc21` [C-81 enantiomer A, 2-((1r,4r)-4-(4-(4-(2-ethylphenylcarbamoyl)-2-methyl-3,4-dihydro-2H-benzo[b][1,4]oxazin-7-yl)phenyl)cyclohexyl)acetic acid]: 58 nM corresponded to half-maximal inhibition (IC50).
For the compound `O=C(O)C[C@H]1CC[C@H](c2ccc(-c3ccc4c(C(=O)Nc5ccccc5)ccnc4c3)cc2)CC1` [Example B-48, 2-((1r,4r)-4-(4-(4-(phenylcarbamoyl)quinolin-7-yl)phenyl)cyclohexyl)acetic acid], the IC50 is 83 nM.
Regarding `O=C(O)C[C@H]1CC[C@H](c2ccc(-c3ccc4c(c3)OCCN4C(=O)Nc3ccc(F)cc3C(F)(F)F)cc2)CC1` [Example C-6, 2-((1r,4r)-4-(4-(4-(4-fluoro-2-(trifluoromethyl)phenylcarbamoyl)-3,4-dihydro-2H-benzo[b][1,4]oxazin-7-yl)phenyl)cyclohexyl)acetic acid], inhibition was half-maximal at 20 nM (IC50).
Compound `CCCCCCNC(=O)N1CC(C)Oc2cc(-c3ccc([C@H]4CC[C@H](CC(=O)O)CC4)cc3)ccc21` (stereo partly shown) [Example C-113, 2-((1r,4r)-4-(4-(4-(hexylcarbamoyl)-2-methyl-3,4-dihydro-2H-benzo[b][1,4]oxazin-7-yl)phenyl)cyclohexyl)acetic acid] returned an IC50 of 82 nM.
The figure for `CCCCCCCNC(=O)N1CC(C)Oc2cc(-c3ccc([C@H]4CC[C@H](CC(=O)O)CC4)cc3)ccc21` (stereo partly shown) [Example C-116, 2-((1r,4r)-4-(4-(4-(heptylcarbamoyl)-2-methyl-3,4-dihydro-2H-benzo[b][1,4]oxazin-7-yl)phenyl)cyclohexyl)acetic acid] is 71 nM; for `CC(C)c1ccccc1NC(=O)c1ccnc2cc(-c3ccc([C@H]4CC[C@H](CC(=O)O)CC4)cc3)ccc12` [Example C-125, 2-((1r,4r)-4-(4-(4-(2-isopropylphenylcarbamoyl)quinolin-7-yl)phenyl)cyclohexyl)acetic acid] it is 72 nM.
The compound `CCCc1ccccc1NC(=O)c1ccnc2cc(-c3ccc([C@H]4CC[C@H](CC(=O)O)CC4)cc3)ccc12` [Example C-129, 2-((1r,4r)-4-(4-(4-(2-propylphenylcarbamoyl)quinolin-7-yl)phenyl)cyclohexyl)acetic acid] registered an IC50 of 94 nM.
With `Cc1cc(C(=O)Nc2ccccc2)c2ccc(-c3ccc([C@H]4CC[C@H](CC(=O)O)CC4)cc3)cc2n1` [Example C-134, 2-((1r,4r)-4-(4-(2-methyl-4-(phenylcarbamoyl)quinolin-7-yl)phenyl)cyclohexyl)acetic acid] the figure was 28 nM.
On to `Cc1cc(C(=O)NCCc2ccccc2)c2ccc(-c3ccc([C@H]4CC[C@H](CC(=O)O)CC4)cc3)cc2n1` [Example C-139, 2-((1r,4r)-4-(4-(2-methyl-4-(phenethylcarbamoyl)quinolin-7-yl)phenyl)cyclohexyl)acetic acid], for which the IC50 was 61 nM.
As to `Cc1cc(C(=O)NCCCCc2ccccc2)c2ccc(-c3ccc([C@H]4CC[C@H](CC(=O)O)CC4)cc3)cc2n1` [Example C-141, 2-((1r,4r)-4-(4-(2-methyl-4-(4-phenylbutylcarbamoyl)quinolin-7-yl)phenyl)cyclohexyl)acetic acid], inhibition was half-maximal at 15 nM (IC50).
In turn, `CCCCCCCNC(=O)N1CC(CC)Oc2cc(-c3ccc([C@H]4CC[C@H](CC(=O)O)CC4)cc3)ccc21` (stereo partly shown) [Example C-150, 2-((1r,4r)-4-(4-(2-ethyl-4-(heptylcarbamoyl)-3,4-dihydro-2H-benzo[b][1,4]oxazin-7-yl)phenyl)cyclohexyl)acetic acid] returned an IC50 of 83 nM.
